Measured values reported in patent publication US12637464B2, “Tetracyclic compounds for treating brain disorders” (The Regents of the University of California, priority 2021, dated 2026).

Legend:
C57BL/6J mice = assay: Head-twitch response (HTR) assay; type: in vivo, mouse
Procedure: Head-Twitch Response Assay. The HTR assay was performed using equal numbers of male and female C57BL/6J mice. The mice were obtained from The Jackson Laboratory (Sacramento, CA) and were approximately 8-12 weeks old at the time of the experiments. After compound administration, animals were placed into an empty arena (40 cm×40 cm) and filmed for 20 min. The arena was cleaned with 70% ethanol between trials. Animals were given a one-week washout period before being tested again. Animals were tested a maximum of 4 times. All drug treatments were randomized and no animal received the same drug and dose twice. For the blocking experiments, animals were administered (+)-JRT (1 mg/kg) or vehicle (saline) via IP injection and placed in an empty cage for 15 min. Animals were then administered LSD (0.2 mg/kg, IP), placed in the test arena, and filmed for 20 min. Videos were scored later by two blinded observers, and the results were averaged (Pearson correlation coefficient>0.9).

PSYLI2 cells = assay: PsychLight assays (agonist and antagonist mode); type: cell-based; conditions: FIG. 3C-3E; agonist mode concentration-response, antagonist mode 1 μM
Procedure: PsychLight Assays. Psychlight assays were performed using a previously published method. Briefly, glass bottom 96-well plates were coated with 50 μg/mL of poly-D-lysine overnight at room temperature and then washed with Dulbecco's PBS. PSYLI2 cells were suspended in DMEM containing 10% FBS with 5% penicillin-streptomycin, plated at a density of 40,000 cells/well, and incubated (37° C., 5% CO2) for 24 h prior to each experiment. Immediately before an experiment, stock solutions of drugs in DMSO were diluted 1:100 in imaging media distributed across an empty 96-well plate (treatment plate) following a randomized plate map. The imaging media consisted of 1×HBSS containing […] and […]. […] Data were from 2 plates with 2-3 wells being analyzed per plate. […]
Once imaging was complete, the images were exported, and analyzed using a custom Python script. […] The mask was generated by calculating the average fluorescence intensity for the entire image and using that value as a threshold. […] The % ΔF/F values for each well were calculated using the following equation: […]
Once imaging was complete, the images were exported, and analyzed using a custom Python script. […] The mask was generated by calculating the average fluorescence intensity for the entire image and using that value as a threshold. […]

SMILES: CCN(CC)C(=O)[C@@H]1C=C2c3cccc4ccn(c34)C[C@H]2N(C)C1 [(+)-JRT]
- HTR induced by LSD (antipsychotic properties) (C57BL/6J mice; (+)-JRT 1 mg/kg pretreatment, LSD 0.2 mg/kg): antagonizing a HTR induced by LSD
- hallucinogenic potential (mouse head-twitch response, agonist mode) (C57BL/6J mice; male and female mice, agonist mode): low hallucinogenic potential
- hallucinogenic potential (psychLight) (PSYLI2 cells): low hallucinogenic potential
